Test results taken from US5443967A, “DNA encoding the cancer associated SCM recognition factor” (priority 1993, dated 1995).

Key:
[1] = system: trypsin; experiment: Casein-resorufin protease assay: inhibition of trypsin by α-1-PI; assay type: biochemical; details: 3 μg Trypsin + 6.6 μg α-1-PI; 300 μL
Procedure: (§1) A protease activity using casein-resorufin as a protease substrate was performed to determine the effect of SCM factor on inhibition of the serine proteases trypsin, elastase, and cathepsin G by the serine protease inhibitor α-1-PI. The protocol provided by the manufacturer, Boehringer-Mannheim Biochemica, was followed to assay protease activity. […] However, when SCM factor was added before α-1-PI or simultaneously in a mixture with α-1-PI, it prevented the inhibition of trypsin by α-1-PI. The degree of this effect depended on the quantity of SCM factor added. […] The active portion of the molecule that prevents inhibition of the proteolytic enzymes by α- 1-PI resides within the first seven amino-terminal amino acid residues of the SCM factor. This portion of the molecule is designated "fraction 6" or F6. The effectiveness of equimolar amounts of the peptide F6, as compared to the entire SCM factor molecule (Table 20) in preventing the inhibition of elastase by α-1-PI is shown in Table 22.

[2] = system: elastase; experiment: Casein-resorufin protease assay: inhibition of elastase by α-1-PI; assay type: biochemical; details: 3.2 μg Elastase + 6.6 μg α-1-PI
Procedure: as §1

[3] = molecular target: T1, cathepsin G (Homo sapiens, UniProt P08311); experiment: Casein-resorufin protease assay: inhibition of cathepsin G by α-1-PI; assay type: biochemical; details: 1 μg Cathepsin G + 6.6 μg α-1-PI; 300 μL
T1 sequence (P08311 21-244 limits assumed): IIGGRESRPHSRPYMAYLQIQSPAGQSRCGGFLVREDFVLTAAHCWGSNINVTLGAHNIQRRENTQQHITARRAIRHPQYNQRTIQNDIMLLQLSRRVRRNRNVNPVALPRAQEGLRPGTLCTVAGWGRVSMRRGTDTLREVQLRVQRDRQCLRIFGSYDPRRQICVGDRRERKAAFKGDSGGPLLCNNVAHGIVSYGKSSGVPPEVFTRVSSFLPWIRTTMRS
Procedure: as §1

[4] = system: SCM-responding lymphocytes; experiment: SCM-response modifying effect of α-1-PI (SCM test after preincubation and washing); assay type: cell-based, human; details: 2.5 hr α-1-PI + 3X Wash
Procedure: SCM-responding lymphocytes were isolated from blood samples of a patient with malignant melanoma and from a normal, healthy donor. Half of the lymphocyte suspension from each sample was incubated with 30 nanomoles of α-1-PI per 6×10^6 cells for 2.5 hours at 37° C.; the other half was retained as an untreated control. The cells were then washed three times with PBS. Aliquots from both the untreated controls and the α-1-PI-treated samples were challenged for 40 min with phytohemagglutinin (PHA) or SCM factor. […] The RRSCM was 1.74 in the absence of incubation and 1.68 after incubation.

Trypsin Activity in Casein-Resorufin Assay as % of Untreated Control Enzyme [1]: 13.6% | Trypsin Activity in Casein-Resorufin Assay as % of Untreated Control Enzyme ([2]; 300 μL (Table 20)): 3.5% | Cathepsin G Activity in Casein-Resorufin Assay as % of Untreated Control Enzyme [3]: 20.0%
Substance: α-1-PI: glycoprotein serine protease inhibitor, 55,000 daltons, single chain of 394 residues
Elastase Activity in Casein-Resorufin Assay as % of Untreated Control Enzyme ([2]; 300 μL (Table 22)): 3.4% | RRSCM ([4]; lymphocyte donor Healthy): 1.68 | RRSCM ([4]; lymphocyte donor Malignant Melanoma): 1.8
